Values after ≈ are worked out from the molar mass of the structure shown.

The MIC is the lowest concentration that inhibits growth of the organism. A lower MIC goes with a more susceptible organism.

Experiment [1] deals with P. aeruginosa (1051575). The experiment can be described thus: Potentiation of the doxycycline activity at 2 μg/mL. The format is cell-based, Pseudomonas aeruginosa. Conditions: in combination with doxycycline 2 μg/mL; 24 h, 37°.
Experiment [2] deals with E. faecalis ATCC29212. Kind of experiment: MIC determination by microplate dilution, E. faecalis human strain. Type of experiment: cell-based, Enterococcus faecalis. Particulars: Enterococcus faecalis, ATCC29212, Gram-positive, Mueller-Hinton medium, 24 h, 37° C. The method, boiled down: (§1)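 Bacteria were precultured 24 h at 37 °C, standardised by OD600 and seeded into Mueller-Hinton broth at OD 0.01 per well. Test compounds, from a 5 mg/mL DMSO/methanol stock, were diluted two-fold across the plate. After 24 h humid incubation at 37 °C, absorbance at 620 nm gave the MIC.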

Experiment [3] relates to E. coli (1956). The experiment can be described thus: MIC determination by microplate dilution, E. coli animal strain. Conditions: Escherichia coli, Gram-negative, Mueller-Hinton medium, 24 h, 37° C. The format is cell-based, Escherichia coli. The method, boiled down:
as §1

Experiment [4] deals with S. intermedius (1051997). The experiment can be described thus: MIC determination by microplate dilution, S. intermedius animal strain. Type of experiment: cell-based, Staphylococcus intermedius. Conditions: Staphylococcus intermedius, Gram-positive, Mueller-Hinton medium, 24 h, 37° C. The method, boiled down:
as §1

Experiment [5] has as its system P. aeruginosa (1051575). Kind of experiment: Potentiation of chloramphenicol activity. Type of experiment: cell-based, Pseudomonas aeruginosa. The method, then:
This method requires the use of a 96-well plate: 100 μL of a liquid culture medium are placed in each well and then seeded with the microbial suspension prepared previously. The required volume to be seeded is calculated for an OD of 0.01, which corresponds to about 5×10^6 bacteria in each well. In this plate, the first line corresponds to a negative control (200 μL of sterile culture medium in each well), the second line corresponds to a positive control (100 μL of sterile culture medium+100 μL of the bacterial suspension), and the third line contains 192 μL of culture medium; 8 μL of compound of formula (I) to be tested are placed in each well. […] 92 μL of bacterial suspension are then added to lines 3 to 8. […] After 24 hours of incubation at 37° C., 40 μL of nitro tetrazolium iodide are added to each well to reveal the presence of live bacteria by staining the medium pink.
The procedure is identical to that indicated in Example 5 above. […]
The results are given in table V. They indicate the concentration of compound of formula (I) required to be able to restore the activity of the antibiotic under consideration.

In experiment [6] the test system is CHO-K1 cells. The experiment can be described thus: WST1 cytotoxicity test on CHO-K1 cells. Type of experiment: cell-based, Chinese hamster. Particulars: Cricetulus griseus, CHO-K1, read-out: IC50 (μg/mL) CHO. The method, boiled down:
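Viability read-out: WST-1 tetrazolium cleavage by mitochondrial dehydrogenases, 20 min at 37 °C, A450. Compounds added at rising concentrations, in duplicate, to CHO-K1 cells for 24 h (37 °C, 5% CO2). IC50, the concentration halving viability, fitted by nonlinear regression.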
(In general: Tetrazolium dyes change colour on reduction, which living cells bring about.)

Experiment [7] concerns P. aeruginosa (1051575). The experiment can be described thus: MIC determination by microplate dilution, P. aeruginosa animal strain. Type of experiment: cell-based, Pseudomonas aeruginosa. Conditions: Pseudomonas aeruginosa, Gram-negative, Mueller-Hinton medium, 24 h, 37° C. The method, boiled down: as §1
Experiment [8] has as its system E. coli ATCC28922. Kind of experiment: MIC determination by microplate dilution, E. coli human strain. Type of experiment: cell-based, Escherichia coli. Conditions: Escherichia coli, ATCC28922, Gram-negative, Mueller-Hinton medium, 24 h, 37° C. The method, boiled down:
as §1

The subject of experiment [9] is S. aureus ATCC25923. The experiment can be described thus: MIC determination by microplate dilution, S. aureus human strain. The format is cell-based, Staphylococcus aureus. Particulars: Staphylococcus aureus, ATCC25923, Gram-positive, Mueller-Hinton medium, 24 h, 37° C. The method, boiled down:
as §1

Experiment [10] concerns P. aeruginosa ATCC27853. The experiment can be described thus: MIC determination by microplate dilution, P. aeruginosa human strain. Particulars: Pseudomonas aeruginosa, ATCC27853, Gram-negative, Mueller-Hinton medium, 24 h, 37° C. Type of experiment: cell-based, Pseudomonas aeruginosa. The method, boiled down: as §1

`CC(C)OC(=O)CC[C@@H](C)[C@H]1CCC2C3C(CC[C@@]21C)[C@@]1(C)CC[C@H](NCCCN(CCCN)CCCN)CC1C[C@H]3O` (stereo partly drawn) [(39), isopropyl 3β-(tris(3-aminopropyl)amine)chenodeoxycholate]: in experiment [1], the “MIC - P. aeruginosa (1051575): content of compound of formula (I) to restore the doxycycline activity (at 2 μg/mL)” value is 2 µg/mL. The MIC in experiment [2] stood at 14 µg/mL (≈ 23.1 µM); in experiment [3], 28 µg/mL (≈ 46.3 µM); in experiment [4], 3.5 µg/mL (≈ 5.79 µM); in experiment [7] it was 28 µg/mL (≈ 46.3 µM); in experiment [8], 14 µg/mL (≈ 23.1 µM); in experiment [9] it was 7 µg/mL (≈ 11.6 µM). Moreover, the minimum inhibitory concentration (MIC) in experiment [10] was 28 µg/mL (≈ 46.3 µM). The “MIC P. aeruginosa (1051575), compound + chloramphenicol” value in experiment [5] (concentration of compound required with chloramphenicol 2 μg/mL) worked out at 4 µg/mL; in [5] (concentration of compound required with chloramphenicol 4 μg/mL) it was 2 µg/mL. In addition, the IC50 in experiment [6] turned out to be 110 µg/mL (≈ 182 µM).
